Where “and” joins values, the source holds several entries; their conditions need not be identical. Identical values can stand only once.
What was measured:
[1] = tested on: human jejunum; settings: value = Peff x 10^4; cited from earlier work
[2] = Dispersive biomimetic solid-phase extraction (d-BMSPE) with PC-modified POP material; format: in vitro ADME; settings: 30 min; for d-BMSPE extraction efficiency: 3.5 mg/L CEC in 5 mL PBS pH 7.4, ca. 40 mg PC-modified POP, 15 rpm, 37 °C; for RMBE·10^4 (relative mol bioextraction): value = RMBE x 10^4, mol analyte extracted per mol PC attached, PBS pH 7.4, 37 °C
Procedure: The experimental procedure starts by spiking 5 mL of PBS at pH 7.4 mimicking pH conditions from the small intestine with 3.5 mg L^–1 of the selected CEC and mixing with ca. 40 mg of PC-modified POP material. The material is dispersed gently in the solution at 15 rpm for 30 min at physiological temperature (37 °C) using a lab rotator, followed by separation of the biomimetic material by centrifugation. After separation, the supernatant of the biomimetic extractions is analyzed by HPLC. The bioextractable fraction of every CEC is determined by subtraction from the original spike concentration.
Following the fabrication of the biomimetic polymer, several considerations should be set before carrying out the d-BMSPE. First, the amount of PC on the modified polymer (GMA@HMD@GA@HMD@PCs) to simulate the absorption area of the jejunum needs to be evaluated.
The estimated liquid volume under fasted conditions of the jejunum is ca. 20 mL.[45] However, in this work, solutions of 5 mL were selected in order to reduce the amount of biomimetic material used in every extraction protocol. Therefore, only 1/4 of the total PC amount calculated above (ca. 9 μmol) should be used to maintain the PC to jejunum liquid ratio. A crucial experimental parameter in our work is the amount of PC-laden biopolymer necessary to simulate the absorption area of the jejunum.
With respect to the remainder of experimental parameters, a gentle agitation was performed at 15 rpm to just enable a good dispersion of the polymer in the test solution. The extraction time was set to 30 min according to the average intestinal transit time and the length of the jejunum over the total length of the small intestine.[46] Finally, the extraction temperature was set to 37 °C to simulate physiological conditions.
In addition, a new bioparameter, “RMBE” that stands for "Relative Mol BioExtraction", is herein proposed for the first time. RMBE is defined as the extraction efficiency expressed as mol of analyte extracted per mol of PC attached to the biomimetic material under physiologically simulated conditions (e.g., extraction using PBS buffer at 37 °C, or gastrointestinal fluid surrogates, or actual human fluids, among others).

[3] = Dispersive extraction with the free polymer (GMA monolith); format: physicochemical; settings: free polymer without PC
[4] = Dispersive extraction with the polymer prior to PC attachment (GMA@HMD@GA@HMD); format: physicochemical

Row | d-BMSPE extraction efficiency [2] | RMBE·10^4 (relative mol bioextraction) [2] [mol CEC/mol PC] | extraction efficiency, GMA monolith [3] [%] | extraction efficiency, GMA@HMD@GA@HMD [4] [%] | SMILES | experimental Peff·10^4 [1]
1 | – | – | – | – | CC1=C(C(=O)O)N2C(=O)[C@@H](NC(=O)[C@H](N)c3ccccc3)[C@H]2SC1 [CEX, cephalexin] | 1.6[6] cm/ s
2 | 4.6 ± 2.1% | 9.6 ± 1.7 | – | – | CN/C(=N/CCSCc1nc[nH]c1C)NC#N [CTM, cimetidine] | 0.8[51] cm/ s
3 | 10.6 ± 1.1% | 22.6 ± 0.8 | ~100 | ~40 | O=C(O)Cc1ccccc1Nc1c(Cl)cccc1Cl [DCF, diclofenac] | 1.6[40] cm/ s
4 | 26.3 ± 1.1% | 49.8 ± 0.9 | – | – | NS(=O)(=O)c1cc(C(=O)O)c(NCc2ccco2)cc1Cl [FUR, furosemide] | 0.6[49] cm/ s
5 | – | – | – | – | Cc1cnc(C(=O)NCCc2ccc(S(=O)(=O)NC(=O)NC3CCCCC3)cc2)cn1 [GLP, glipizide] | 0.9[38] cm/ s
6 | 0.9% and 0.9 ± 0.1% | 3.6 ± 0.7 | – | – | CN(C)C(=N)N=C(N)N [MET, metformin] | 0.1[52] cm/ s
7 | 15.3 ± 0.8% | 60.3 ± 1.5 | – | – | CC(=O)Nc1ccc(O)cc1 [PCT, paracetamol] | 4.0[6] cm/ s

Reference: paper PMC10483468, “Biomimetic Dispersive Solid-Phase Microextraction: A Novel Concept for High-Throughput Estimation of Human Oral Absorption of Organic Compounds” (Analytical Chemistry, 2023)
